From US20240150301A1, “METHODS OF MODULATING ANDROGEN RECEPTOR CONDENSATES” (ETERN BIOPHARMA (SHANGHAI) CO., LTD., priority 2021, published 2024)
“Also recorded” adds a separate entry of the source.

Assays:
[1] = biological target: T1, AR (Homo sapiens, UniProt P10275); assay: ARE-luciferase reporter assay in LNCaP cells (DHT-induced); assay type: cell-based; details: 1 nM DHT, 24 h, normalized to cell viability, read-out: LNCaP ARE-luc IC50
T1 sequence (P10275 1-920 T878A): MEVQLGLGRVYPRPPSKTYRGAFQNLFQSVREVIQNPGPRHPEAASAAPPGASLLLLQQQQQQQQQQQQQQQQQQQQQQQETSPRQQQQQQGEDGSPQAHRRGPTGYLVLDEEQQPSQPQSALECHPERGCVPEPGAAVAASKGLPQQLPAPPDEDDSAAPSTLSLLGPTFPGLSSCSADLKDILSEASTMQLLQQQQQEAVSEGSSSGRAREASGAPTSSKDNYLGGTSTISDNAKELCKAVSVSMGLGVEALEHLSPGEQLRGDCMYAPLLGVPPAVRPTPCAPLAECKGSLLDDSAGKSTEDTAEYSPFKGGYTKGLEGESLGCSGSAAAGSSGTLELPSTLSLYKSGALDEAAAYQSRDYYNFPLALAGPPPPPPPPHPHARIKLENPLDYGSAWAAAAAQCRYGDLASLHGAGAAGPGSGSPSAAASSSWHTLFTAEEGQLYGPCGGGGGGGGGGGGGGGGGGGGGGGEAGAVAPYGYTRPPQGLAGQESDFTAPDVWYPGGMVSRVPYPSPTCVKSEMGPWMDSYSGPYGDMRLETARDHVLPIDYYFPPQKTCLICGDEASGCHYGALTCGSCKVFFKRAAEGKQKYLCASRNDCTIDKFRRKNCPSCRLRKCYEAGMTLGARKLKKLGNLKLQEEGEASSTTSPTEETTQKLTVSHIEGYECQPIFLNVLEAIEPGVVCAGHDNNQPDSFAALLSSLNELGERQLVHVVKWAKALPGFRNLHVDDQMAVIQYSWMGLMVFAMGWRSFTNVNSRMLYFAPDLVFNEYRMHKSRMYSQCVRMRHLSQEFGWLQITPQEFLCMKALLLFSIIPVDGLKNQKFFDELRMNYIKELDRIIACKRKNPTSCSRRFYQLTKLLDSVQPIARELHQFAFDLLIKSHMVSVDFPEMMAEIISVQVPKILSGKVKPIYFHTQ
Experimental: (§1) The ARE-luciferase reporter plasmid contains functional AREs (androgen response elements) to which AR binds in response to androgen to induce luciferase activity. LNCaP (Cobioer) cells were transiently transfected with the ARE-luciferase reporter in charcoal stripped FBS/phenol red-free RPMI medium prior to treatment for 24 hours. Then DMSO or test compounds with serial diluted concentrations were added one hour prior to the addition of DHT(1 nM). After 24 h of incubation with DHT, cells were lysed and luciferase activity was assayed using the ONE-Glo™ Luciferase Assay System (Promega) and measured using EnVision Multimode Plate Reader, according to manufacturer's instructions. Values were normalized to cell viability determined by CellTiter-Glo® Luminescent Cell Viability Assay Kit (Promega). […] GraphPad Prism graphing software was used to calculate IC50 values.

[2] = tested on: LNCaP cells; assay: Cell proliferation assay (CellTiter-Glo), LNCaP; assay type: cell-based; details: Homo sapiens, 96 h, 0.2 nM DHT, 4 days, read-out: LNCaP IC50 AR-positive (cell proliferation)
Experimental: (§2) To evaluate the effect of exemplary compounds on proliferation of AR/AR-V7-dependent prostate cancer cells, cell viability assay was performed in LNCaP (AR-positive), 22Rv1 (AR-positive; AR-V7 positive), VCaP (AR-positive; AR-V7 positive), and DU145 (AR-negative) cells, respectively.
(§3) LNCaP cells were seeded in charcoal stripped FBS/phenol red-free RPMI medium in 96-well plates for 24 h before pretreating for 1 h with test compounds prior to addition of 0.2 nM DHT for 4 days. 22Rv1 or VCaP cells were cultured in charcoal stripped FBS/phenol red-free RPMI medium for 24 h before addition of test compounds for 4 days. DU145 cells were seeded in complete medium for 24 h before addition of test compounds for 4 days. Cell proliferation was measured with CellTiter-Glo® Luminescent Cell Viability Assay (Promega). In LNCaP cells, DHT-dependent cell growth is calculated by measuring the difference between vehicle control (DMSO) cells treated with or without 0.2 nM DHT. The IC50 values were determined using the four parameter fit via GraphPad Prism graphing software.

[3] = tested on: 22Rv1 cells; assay: Cell proliferation assay (CellTiter-Glo), 22Rv1; assay type: cell-based; details: Homo sapiens, 22Rv1, 96 h; 4 days; read-out: 22Rv1 IC50 AR-positive; AR-V7 positive (cell proliferation)
Experimental: as §2, §3

[4] = tested on: VCaP cells; assay: Cell proliferation assay (CellTiter-Glo), VCaP; assay type: cell-based; details: Homo sapiens, 96 h, 4 days, read-out: VCaP IC50 AR-positive, AR-V7 positive (cell proliferation)
Experimental: as §2, §3

[5] = tested on: DU145 cells; assay: Cell proliferation assay (CellTiter-Glo), DU145; assay type: cell-based; details: Homo sapiens, DU-145, 96 h; 4 days; read-out: DU145 IC50 AR-negative (cell proliferation)
Experimental: as §2, §3

[6] = tested on: AR or AR-V7 downstream target genes; assay: AR/AR-V7 target gene qPCR assay in 22Rv1 cells; assay type: cell-based, human; details: 22Rv1, 48 h, RT-qPCR
Experimental: To evaluate the effect of exemplary compounds on mRNA expression of AR or AR-V7 downstream target genes, real-time quantitative PCR measurements were performed in prostate cancer cell line 22Rv1 expressing both AR and AR-V7.
22Rv1 cells were cultured in charcoal stripped FBS/phenol red-free RPMI medium for 24 h, and then treated with DMSO or test compounds for additional 48 h prior to RT-qPCR. Briefly, RNA was isolated from cells using RNeasy Mini Kit (Qiagen) following the manufacturer's protocol. RNA was reverse transcribed and subjected to qPCR using PowerUp™ SYBR™ Green Master Mix (Applied Biosystems). The relative quantity of the target genes was calculated using the ΔΔCt method by comparing Ct of the target genes and mean Ct of the housekeeping gene GAPDH.

[7] = biological target: T2, AR V7 (Homo sapiens, UniProt P10275); assay: ARE-luciferase reporter assay in HEK293T cells cotransfected with AR-V7; assay type: cell-based; set-up: host or cells: HEK293T; details: HEK293T cotransfected with AR-V7, hormone-starved, 24 h; read-out: HEK293T(V7) ARE-luc IC50
T2 sequence (P10275 1-644 isoform P10275-3): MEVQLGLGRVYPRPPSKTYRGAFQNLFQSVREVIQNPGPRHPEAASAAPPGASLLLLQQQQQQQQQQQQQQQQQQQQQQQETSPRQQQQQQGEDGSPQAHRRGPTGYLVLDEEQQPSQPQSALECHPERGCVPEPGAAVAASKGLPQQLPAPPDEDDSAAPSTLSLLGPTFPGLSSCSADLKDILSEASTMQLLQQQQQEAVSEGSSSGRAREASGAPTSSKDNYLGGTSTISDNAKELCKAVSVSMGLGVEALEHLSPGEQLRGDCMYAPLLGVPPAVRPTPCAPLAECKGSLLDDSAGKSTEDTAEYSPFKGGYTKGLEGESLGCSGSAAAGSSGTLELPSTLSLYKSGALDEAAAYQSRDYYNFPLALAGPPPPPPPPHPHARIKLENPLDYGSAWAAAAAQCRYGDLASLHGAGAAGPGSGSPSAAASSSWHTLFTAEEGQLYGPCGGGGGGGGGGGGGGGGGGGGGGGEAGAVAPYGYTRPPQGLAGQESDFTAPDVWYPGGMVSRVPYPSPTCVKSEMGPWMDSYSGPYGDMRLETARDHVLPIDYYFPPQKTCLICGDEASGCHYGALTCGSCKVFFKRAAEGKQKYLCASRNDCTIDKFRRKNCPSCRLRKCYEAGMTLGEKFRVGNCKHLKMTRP
Experimental: as §1
(§4) To evaluate the transcriptional activity of AR-V7, HEK293T(Cobioer) cells were transiently cotransfected with an expression vector for AR-V7 and the ARE-luciferase reporter in hormone-starved conditions. For 22Rv1(Cobioer) prostate cancer cell line, which expresses endogenous AR-V7, ARE-luciferase reporter was transiently transfected in hormone-starved conditions. 24 h after transfection, DMSO or test compounds with serial diluted concentrations were added for additional 24 h incubation. Reporter activity was detected and normalized by cell viability as described above. Treatments were normalized to DMSO control activity, and IC50 values were further determined via GraphPad Prism graphing software.

[8] = biological target: T2, AR V7; assay: ARE-luciferase reporter assay in 22Rv1 cells (endogenous AR-V7); assay type: cell-based; set-up: 22Rv1(Cobioer) prostate cancer cell line, which expresses endogenous AR-V7; host or cells: 22Rv1; details: 22Rv1, hormone-starved, 24 h; read-out: 22Rv1 ARE-luc IC50
Experimental: as §1, §4

[9] = tested on: AF-1 recombinant protein (human AR-NTD); assay: AF-1 STD NMR binding assay; details: 25 μM AF-1, 250 μM compound
Experimental: Binding of the exemplary compounds to human AR-NTD was performed using STD […] Nuclear Magnetic Resonance (STD NMR) analysis with purified AF-1 recombinant protein.
Binding of the exemplary compounds to human AR-NTD was performed using STD […] Nuclear Magnetic Resonance (STD NMR) analysis with purified Tau-5AF-1 recombinant protein. All NMR spectroscopy experiments were performed on a Bruker Avance III 600 MHz spectrometer. NMR samples contain 25 μM AF-1 and 250 μM compound, and were diluted by PBS (pH 7.4, 60% D20) buffer to 500 μL. For the STD experiments, the standard Bruker stddiffgp19.3 pulse sequence was used with a saturation time of 2 s and a spectral width of 16 ppm with 128 scans. The on-resonance frequency was set to −0.4 ppm, while the off-resonance frequency was set to 33 ppm. Appropriate blank experiments, in the absence of protein or compound, were performed to test the lack of direct saturation to the compound protons.

SMILES	IC50 [1]	IC50 [2]	IC50 [3]	IC50 [4]	IC50 [5]	mRNA expression of target genes of either AR or AR-V7 [6]	IC50 [7]	IC50 [8]	binding to AF-1 (STD difference spectrum) [9]
CC(C)(c1ccc(OCc2ccnc(N=S3(=O)CCCC3)n2)cc1)c1cc(Cl)c(OCCCl)c(C#N)c1 [Compound 2, 3-chloro-2-(2-chloroethoxy)-5-(2-(4-((2-((1-oxidotetrahydro-1λ^6-thiophen-1-ylidene)amino)pyrimidin-4-yl)methoxy)phenyl)propan-2-yl) benzonitrile]	2.82 µM	0.52 µM	2.75 µM	8.81 µM	> 20 µM	inhibited mRNA expression	2.3 µM	4.4 µM	–
CC(C)(c1ccc(OCc2ccnc(N=S3(=O)CCNCC3)n2)cc1)c1cc(Cl)c(OCCO)c(C#N)c1 [Compound 62, 3-chloro-2-(2-hydroxyethoxy)-5-(2-(4-((2-((1-oxido-1λ^6-thiomorpholin-1-ylidene)amino)pyrimidin-4-yl)methoxy)phenyl)propan-2-yl)benzonitrile]	–	–	–	–	–	–	–	–	confirmed the binding; also recorded: binds to AF-1
